Measurements published in PubChem BioAssay (NCI).
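Cultured in 96-well plates, cells were exposed to test compound for 48 hours across five concentrations. GI50 marks 50% less growth. TGI is the concentration that stops growth completely.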

Columns and labels:
Assay in all cases: DTP human tumour cell line panel, 48 h
786-0 renal = system: 786-0 renal
OVCAR-4 ovarian = system: OVCAR-4 ovarian
HT29 colon = system: HT29 colon
UACC-257 melanoma = system: UACC-257 melanoma
CAKI-1 renal = system: CAKI-1 renal
DU-145 prostate = system: DU-145 prostate
HOP-62 NSCLC = system: HOP-62 NSCLC
LOX IMVI melanoma = system: LOX IMVI melanoma
HOP-92 NSCLC = system: HOP-92 NSCLC
SK-MEL-28 melanoma = system: SK-MEL-28 melanoma
HCT-116 colon = system: HCT-116 colon
SF-268 CNS = system: SF-268 CNS
NCI-H460 lung = system: NCI-H460 lung
UO-31 renal = system: UO-31 renal
SR leukemia = system: SR leukemia
SNB-19 CNS = system: SNB-19 CNS
OVCAR-8 ovarian = system: OVCAR-8 ovarian
CCRF-CEM leukemia = system: CCRF-CEM leukemia
SF-295 CNS = system: SF-295 CNS
IGROV1 ovarian = system: IGROV1 ovarian
BT-549 breast = system: BT-549 breast
SNB-75 CNS = system: SNB-75 CNS
NCI-H522 lung = system: NCI-H522 lung
SF-539 CNS = system: SF-539 CNS
M14 melanoma = system: M14 melanoma
K-562 leukemia = system: K-562 leukemia
MDA-MB-231 breast = system: MDA-MB-231 breast
SN12C renal = system: SN12C renal
MALME-3M melanoma = system: MALME-3M melanoma
SK-OV-3 ovarian = system: SK-OV-3 ovarian
MDA-MB-435 = system: MDA-MB-435
COLO 205 colon = system: COLO 205 colon
SK-MEL-2 melanoma = system: SK-MEL-2 melanoma
EKVX NSCLC = system: EKVX NSCLC
TK-10 renal = system: TK-10 renal
NCI-H226 lung = system: NCI-H226 lung
SW-620 colon = system: SW-620 colon
HCC-2998 colon = system: HCC-2998 colon
NCI-H23 lung = system: NCI-H23 lung
A498 renal = system: A498 renal
MCF7 breast = system: MCF7 breast
NCI/ADR-RES ovarian = system: NCI/ADR-RES ovarian
PC-3 prostate = system: PC-3 prostate
U251 CNS = system: U251 CNS
OVCAR-5 ovarian = system: OVCAR-5 ovarian
OVCAR-3 ovarian = system: OVCAR-3 ovarian
T-47D breast = system: T-47D breast
SK-MEL-5 melanoma = system: SK-MEL-5 melanoma
RPMI-8226 leukemia = system: RPMI-8226 leukemia
ACHN renal = system: ACHN renal
HS 578T breast = system: HS 578T breast
KM12 colon = system: KM12 colon
HCT-15 colon = system: HCT-15 colon
MOLT-4 leukemia = system: MOLT-4 leukemia
A549 NSCLC = system: A549 NSCLC
UACC-62 melanoma = system: UACC-62 melanoma
HL-60(TB) leukemia = system: HL-60(TB) leukemia

Compound: O=C(CCCCCCNC(=O)C(O)(O)C(F)(F)F)Nc1nc2ccccc2s1
- GI50 (786-0 renal): 6.4 µM
- TGI (786-0 renal): > 29.8 µM
- GI50 (OVCAR-4 ovarian): 11 µM
- TGI (OVCAR-4 ovarian): > 29.8 µM
- GI50 (HT29 colon): 3.75 µM
- TGI (HT29 colon): > 29.8 µM
- GI50 (UACC-257 melanoma): 6.56 µM
- TGI (UACC-257 melanoma): > 29.8 µM
- GI50 (CAKI-1 renal): 6.99 µM
- TGI (CAKI-1 renal): > 29.8 µM
- GI50 (DU-145 prostate): 4.99 µM
- TGI (DU-145 prostate): > 29.8 µM
- GI50 (HOP-62 NSCLC): 4.29 µM
- TGI (HOP-62 NSCLC): > 29.8 µM
- GI50 (LOX IMVI melanoma): 3.41 µM
- TGI (LOX IMVI melanoma): 7.75 µM
- GI50 (HOP-92 NSCLC): 0.751 µM
- TGI (HOP-92 NSCLC): 8.28 µM
- GI50 (SK-MEL-28 melanoma): 3.76 µM
- TGI (SK-MEL-28 melanoma): > 29.8 µM
- GI50 (HCT-116 colon): 1.23 µM
- TGI (HCT-116 colon): > 29.8 µM
- GI50 (SF-268 CNS): 7.69 µM
- TGI (SF-268 CNS): > 29.8 µM
- GI50 (NCI-H460 lung): 2.98 µM
- TGI (NCI-H460 lung): > 29.8 µM
- GI50 (UO-31 renal): 2.01 µM
- TGI (UO-31 renal): 15.9 µM
- GI50 (SR leukemia): 1.23 µM
- TGI (SR leukemia): > 29.8 µM
- GI50 (SNB-19 CNS): 6.49 µM
- TGI (SNB-19 CNS): > 29.8 µM
- GI50 (OVCAR-8 ovarian): 2.86 µM
- TGI (OVCAR-8 ovarian): > 29.8 µM
- GI50 (CCRF-CEM leukemia): 2.01 µM
- TGI (CCRF-CEM leukemia): > 29.8 µM
- GI50 (SF-295 CNS): 3.43 µM
- TGI (SF-295 CNS): 8.88 µM
- GI50 (IGROV1 ovarian): 4.87 µM
- TGI (IGROV1 ovarian): 16.4 µM
- GI50 (BT-549 breast): 7.06 µM
- TGI (BT-549 breast): > 29.8 µM
- GI50 (SNB-75 CNS): 1.67 µM
- TGI (SNB-75 CNS): > 29.8 µM
- GI50 (NCI-H522 lung): 2.76 µM
- TGI (NCI-H522 lung): 14.7 µM
- GI50 (SF-539 CNS): 6.56 µM
- TGI (SF-539 CNS): > 29.8 µM
- GI50 (M14 melanoma): 6.4 µM
- TGI (M14 melanoma): > 29.8 µM
- GI50 (K-562 leukemia): 1.7 µM
- TGI (K-562 leukemia): > 29.8 µM
- GI50 (MDA-MB-231 breast): 3.59 µM
- TGI (MDA-MB-231 breast): 22.1 µM
- GI50 (SN12C renal): 6.39 µM
- TGI (SN12C renal): > 29.8 µM
- GI50 (MALME-3M melanoma): 1.49 µM
- TGI (MALME-3M melanoma): 13 µM
- GI50 (SK-OV-3 ovarian): 2.27 µM
- TGI (SK-OV-3 ovarian): 12.6 µM
- GI50 (MDA-MB-435): 4.36 µM
- TGI (MDA-MB-435): 23.5 µM
- GI50 (COLO 205 colon): 3.17 µM
- TGI (COLO 205 colon): 9.45 µM
- GI50 (SK-MEL-2 melanoma): 4.43 µM
- TGI (SK-MEL-2 melanoma): 21 µM
- GI50 (EKVX NSCLC): 6.39 µM
- TGI (EKVX NSCLC): > 29.8 µM
- GI50 (TK-10 renal): 1.17 µM
- TGI (TK-10 renal): > 29.8 µM
- GI50 (NCI-H226 lung): 9.61 µM
- TGI (NCI-H226 lung): > 29.8 µM
- GI50 (SW-620 colon): 2.08 µM
- TGI (SW-620 colon): 11 µM
- GI50 (HCC-2998 colon): 5.75 µM
- TGI (HCC-2998 colon): 16.8 µM
- GI50 (NCI-H23 lung): 4.94 µM
- TGI (NCI-H23 lung): 25.9 µM
- GI50 (A498 renal): 1.51 µM
- TGI (A498 renal): 12.5 µM
- GI50 (MCF7 breast): 6.59 µM
- TGI (MCF7 breast): > 29.8 µM
- GI50 (NCI/ADR-RES ovarian): 3.4 µM
- TGI (NCI/ADR-RES ovarian): 16.7 µM
- GI50 (PC-3 prostate): 5.01 µM
- TGI (PC-3 prostate): > 29.8 µM
- GI50 (U251 CNS): 4.32 µM
- TGI (U251 CNS): 25.5 µM
- GI50 (OVCAR-5 ovarian): 2.33 µM
- TGI (OVCAR-5 ovarian): 15 µM
- GI50 (OVCAR-3 ovarian): 3.17 µM
- TGI (OVCAR-3 ovarian): 8.39 µM
- GI50 (T-47D breast): 2.24 µM
- TGI (T-47D breast): 22.8 µM
- GI50 (SK-MEL-5 melanoma): 4.08 µM
- TGI (SK-MEL-5 melanoma): 8.13 µM
- GI50 (RPMI-8226 leukemia): 2.73 µM
- TGI (RPMI-8226 leukemia): > 29.8 µM
- GI50 (ACHN renal): 3.59 µM
- TGI (ACHN renal): 17.3 µM
- GI50 (HS 578T breast): 3.57 µM
- TGI (HS 578T breast): > 29.8 µM
- GI50 (KM12 colon): 5.84 µM
- TGI (KM12 colon): > 29.8 µM
- GI50 (HCT-15 colon): 5.8 µM
- TGI (HCT-15 colon): 19.1 µM
- GI50 (MOLT-4 leukemia): 1.21 µM
- TGI (MOLT-4 leukemia): > 29.8 µM
- GI50 (A549 NSCLC): 7.99 µM
- TGI (A549 NSCLC): > 29.8 µM
- GI50 (UACC-62 melanoma): 1.61 µM
- TGI (UACC-62 melanoma): 6.76 µM
- GI50 (HL-60(TB) leukemia): 1.85 µM
- TGI (HL-60(TB) leukemia): > 29.8 µM
